We go through 18 compounds from patent US20240309016A1, “MACROCYCLIC HETEROCYCLE COMPOUNDS AND USE THEREOF” (TAKEDA PHARMACEUTICAL COMPANY LIMITED, priority 2023, published 2024).

In the experiment the target is T1, human OX2 receptor (Homo sapiens, UniProt O43614).
T1 construct: expressed in transfected cells
T1 sequence (O43614 1-444): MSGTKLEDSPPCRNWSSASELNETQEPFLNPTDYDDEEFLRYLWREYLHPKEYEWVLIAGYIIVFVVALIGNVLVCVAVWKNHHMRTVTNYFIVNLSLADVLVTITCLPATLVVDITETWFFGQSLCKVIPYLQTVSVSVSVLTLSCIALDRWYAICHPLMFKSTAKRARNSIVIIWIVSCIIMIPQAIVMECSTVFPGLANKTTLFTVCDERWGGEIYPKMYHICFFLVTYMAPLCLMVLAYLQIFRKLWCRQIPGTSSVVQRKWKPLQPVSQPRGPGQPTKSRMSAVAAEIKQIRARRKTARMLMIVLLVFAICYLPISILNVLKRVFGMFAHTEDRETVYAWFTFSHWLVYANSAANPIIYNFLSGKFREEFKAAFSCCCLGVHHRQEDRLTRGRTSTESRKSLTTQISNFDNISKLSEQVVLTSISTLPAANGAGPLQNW
The experiment is described as follows: Measurement of orexin type 2 receptor agonist activity (Experimental Example 2; Fluo-4 AM calcium fluorescence, FDSS μCELL). The experiment is classed as cell-based. The conditions noted are these: compound at 3 μM; CHO cells expressing human OX2 receptor; DMSO = 0%, 10 nM orexin A (human) = 100%. As for the experimental part: In order to obtain cell clones that stably express human orexin type 2 receptor, human orexin type 2 (residues 1-444, NCBI Reference Sequence: AK314279) was constructed in a pcDNA3.1 (+) vector (Invitrogen) to express in mammalian cells. This plasmid DNA was transfected into CHO-K1 cells by electroporation, and stable clones were obtained by limiting dilution using resistance to G418 as a selection marker.
CHO cells in which human OX2 receptor was forcibly expressed were seeded at 10,000 cells/well into a 384-well black transparent bottom plate (BD falcon), and were incubated at 37° C., 5% CO2 for 1 day after incubation at room temperature for 30 minutes. After removing the cell plate medium, assay buffer containing calcium indicator A (HBSS (Thermo Fisher Scientific), 20 mM HEPES (Thermo Fisher Scientific), 0.1% BSA (Sigma-Aldrich), 2.5 μg/mL Fluo-4 AM (Dojin Kagaku), 0.08% Pluronic F127 (Dojin Kagaku), 1.25 mM probenecid (Dojin Kagaku)) was added at 30 μL/well. After incubation in a 5% CO2 incubator at 37° C. for 30 minutes, it was incubated at room temperature for another 30 minutes. Add 10 μL/well of the test compound diluted with assay buffer B (HBSS, 20 mM HEPES, 0.1% BSA), and use FDSS μCELL (Hamamatsu Photonics) to measure the fluorescence value every 1 second for 1 minute, and then every 2 seconds for 1 minute. It was measured for 1 minute and 40 seconds. The amount of fluorescence value when DMSO is added instead of the test compound is defined as 0%, and the amount of fluorescence value when orexin A (human) (Peptide Institute) with a final concentration of 10 nM is added is defined as 100%. The activity (%) of the test compound was calculated. Table 2-1, 2-2, 2-3, and 2-4 show the activity of each compound at a concentration of 3 μM.
In the case of `CCS(=O)(=O)N[C@@H]1[C@@H]2Cc3cccc(c3F)Oc3nc(cnc3C)OCC(=O)N2CC1(F)F` [Example 81, N-[(15aS,16R)-17,17,20-trifluoro-7-methyl-1-oxo-1,2,15a,16,17,18-hexahydro-15H-4,8-(azeno)-10,14-(metheno)pyrrolo[1,2-j][1,7,4,10]dioxadiazacyclo-heptadecin-16-yl]ethanesulfonamide], the “OX2R agonist activity (3 μM, %)” value worked out at 102%. Next, `CCS(=O)(=O)N[C@H]1[C@@H](F)CN2C(=O)NCc3ncc(C)c(n3)Oc3cccc(c3F)C[C@@H]12` [Example 55, N-[(15aS,16R,17S)-17,20-difluoro-7-methyl-1-oxo-2,3,15a,16,17,18-hexahydro-1H,15H-4,8-(azeno)-10,14-(metheno)pyrrolo[1,2-j][1,5,8,10]oxatriazacyclo-heptadecin-16-yl]ethanesulfonamide]: 107%. Regarding `CCS(=O)(=O)N[C@@H]1[C@@H]2Cc3cccc(c3F)Oc3nc(ccc3OC)CNC(=O)N2CC1(F)F` [Example 26, N-[(15aS,16R)-17,17,20-trifluoro-7-methoxy-1-oxo-2,3,15a,16,17,18-hexahydro-1H,15H-4,8-(azeno)-10,14-(metheno)pyrrolo[1,2-j][1,8,10]oxadiazacyclo-heptadecin-16-yl]ethanesulfonamide], the “OX2R agonist activity (3 μM, %)” value amounted to 102%. Next, `CCS(=O)(=O)N[C@H]1[C@@H](F)CN2C(=O)COc3ccc(Cl)c(n3)Oc3cccc(c3)C[C@@H]12` [Example 69, N-[(15aS,16R,17S)-7-chloro-17-fluoro-1-oxo-1,2,15a,16,17,18-hexahydro-15H-4,8-(azeno)-14,10-(metheno)pyrrolo[1,2-d][1,12,4]dioxazacyclo-heptadecin-16-yl]ethanesulfonamide]: 101%. With `Cc1ncc2nc1Oc1cccc(c1F)C[C@H]1[C@@H](NS(C)(=O)=O)C(F)(F)CN1C(=O)CO2` [Example 65, N-[(15aS,16R)-17,17,20-trifluoro-7-methyl-1-oxo-1,2,15a,16,17,18-hexahydro-15H-4,8-(azeno)-10,14-(metheno)pyrrolo[1,2-j][1,7,4,10]dioxadiazacyclo-heptadecin-16-yl]methanesulfonamide] the figure was 102%.

In the case of `CS(=O)(=O)N[C@H]1[C@@H](F)CN2C(=O)NCc3cc(c(Cl)cn3)Oc3cccc(c3F)C[C@@H]12` [Example 44, N-[(15aS,16R,17S)-7-chloro-17,20-difluoro-1-oxo-2,3,15a,16,17,18-hexahydro-1H,15H-4,8:14,10-di(metheno)pyrrolo[1,2-j][1,5,8,10]oxatriazacyclo-heptadecin-16-yl]methanesulfonamide], the “OX2R agonist activity (3 μM, %)” value was found to be 84%.

`O=C1NCc2nc(c(Cl)cc2F)Oc2cccc(c2F)C[C@H]2[C@@H](NS(=O)(=O)C3CC3)C(F)(F)CN12` [Example 58, N-[(15aS,16R)-7-chloro-5,17,17,20-tetrafluoro-1-oxo-2,3,15a,16,17,18-hexahydro-1H,15H-4,8-(azeno)-14,10-(metheno)pyrrolo[1,2-j][1,8,10]oxadiazacyclo-heptadecin-16-yl]cyclopropanesulfonamide]: the “OX2R agonist activity (3 μM, %)” value is given as 106%. As to `CCS(=O)(=O)N[C@@H]1[C@@H]2Cc3cccc(c3F)Oc3nc(cnc3C)CCC(=O)N2CC1(F)F` [Example 61, N-[(1R,19aS)-2,2,20-trifluoro-11-methyl-5-oxo-2,3,6,7,19,19a-hexahydro-1H,5H-8,12-(azeno)-18,14-(metheno)pyrrolo[1,2-j][1,4,10]oxadiazacyclo-heptadecin-1-yl]ethanesulfonamide], the “OX2R agonist activity (3 μM, %)” value is 106%. With `CS(=O)(=O)N[C@H]1[C@@H](F)CN2C(=O)NCc3ccc(Cl)c(c3)Oc3cccc(c3F)C[C@@H]12` [Example 12, N-[(15aS,16R,17S)-7-chloro-17,20-difluoro-1-oxo-2,3,15a,16,17,18-hexahydro-1H,15H-4,8:14,10-di(metheno)pyrrolo[1,2-j][1,8,10]oxadiazacyclo-heptadecin-16-yl]methanesulfonamide] the figure was 99%. On to `CCS(=O)(=O)N[C@H]1[C@@H](F)CN2C(=O)NCc3ccc(C(F)F)c(n3)Oc3cccc(c3F)C[C@@H]12` [Example 27, N-[(15aS,16R,17S)-7-(difluoromethyl)-17,20-difluoro-1-oxo-2,3,15a,16,17,18-hexahydro-1H,15H-8,4-(azeno)-10,14-(metheno)pyrrolo[1,2-j][1,8,10]oxadiazacyclo-heptadecin-16-yl]ethanesulfonamide], for which the “OX2R agonist activity (3 μM, %)” value is given as 102%.

For `CS(=O)(=O)N[C@H]1CCN2C(=O)NCc3ccc(Cl)c(n3)Oc3cccc(c3)C[C@@H]12` [Example 16, N-[(15aS,16S)-7-chloro-1-oxo-2,3,15a,16,17,18-hexahydro-1H,15H-4,8-(azeno)-10,14-(metheno)pyrrolo[1,2-j][1,8,10]oxadiazacyclo-heptadecin-16-yl]methanesulfonamide], the “OX2R agonist activity (3 μM, %)” value was determined as 99%. With `CCS(=O)(=O)N[C@@H]1[C@@H]2Cc3cccc(c3F)Oc3nc(ccc3Cl)CNC(=O)N2CC1(F)F` [Example 17, N-[(15aS,16R)-7-chloro-17,17,20-trifluoro-1-oxo-2,3,15a,16,17,18-hexahydro-1H,15H-4,8-(azeno)-14,10-(metheno)pyrrolo[1,2-j][1,8,10]oxadiazacyclo-heptadecin-16-yl]ethanesulfonamide] the figure was 100%; with `CCS(=O)(=O)N[C@H]1[C@@H](F)CN2C(=O)COc3ccc(Cl)c(n3)Oc3cccc(c3F)C[C@@H]12` [Example 80, N-[(15aS,16R,17S)-7-chloro-17,20-difluoro-1-oxo-1,2,15a,16,17,18-hexahydro-15H-4,8-(azeno)-14,10-(metheno)pyrrolo[1,2-d][1,12,4]dioxazacyclo-heptadecin-16-yl]ethanesulfonamide], 100%; with `CCS(=O)(=O)N[C@H]1[C@@H](F)CN2C(=O)N(C)Cc3ccc(Cl)c(n3)Oc3cccc(c3F)C[C@@H]12` [Example 73, N-[(15aS,16R,17S)-7-chloro-17,20-difluoro-2-methyl-1-oxo-2,3,15a,16,17,18-hexahydro-1H,15H-4,8-(azeno)-10,14-(metheno)pyrrolo[1,2-j][1,8,10]oxadiazacyclo-heptadecin-16-yl]ethanesulfonamide], 101%. With `Cc1cnc2nc1Oc1cccc(c1F)C[C@H]1[C@@H](NS(C)(=O)=O)C(F)(F)CN1C(=O)C1CCN21` (stereo partly drawn) [Example 52, N-[(15aS,16R)-17,17,21-trifluoro-7-methyl-20-oxo-1,2,15a,16,17,18,20,20a-octahydro-15H-4,8-(azeno)-10,14-(metheno)azeto[1,2-g]pyrrolo[1,2-j][1,5,7,10]oxatriazacyclo-heptadecin-16-yl]methanesulfonamide (optical isomer)] the figure was 93%; with `CS(=O)(=O)N[C@@H]1[C@@H]2Cc3cccc(c3F)Oc3nc(ccc3C(F)F)CNC(=O)N2CC1(F)F` [Example 41, N-[(15aS,16R)-7-(difluoromethyl)-17,17,20-trifluoro-1-oxo-2,3,15a,16,17,18-hexahydro-1H,15H-8,4-(azeno)-10,14-(metheno)pyrrolo[1,2-j][1,8,10]oxadiazacyclo-heptadecin-16-yl]methanesulfonamide], 107%; with `Cc1ccc2nc1OCc1cccc(c1F)C[C@H]1[C@@H](NS(C)(=O)=O)C(F)(F)CN1C(=O)NC2` [Example 84, N-[(16aS,17R)-18,18,21-trifluoro-7-methyl-1-oxo-2,3,16a,17,18,19-hexahydro-1H,10H,16H-4,8-(azeno)-15,11-(metheno)pyrrolo[1,2-j][1,8,10]oxadiazacyclo-octadecin-17-yl]methanesulfonamide], 104%.

For the compound `CCS(=O)(=O)N[C@H]1[C@@H](F)CN2C(=O)COc3ccc(Cl)c(n3)Oc3cc(ccc3F)C[C@@H]12` (relative stereo) [Example 91, N-[rel-(15aR,16S,17R)-7-chloro-11,17-difluoro-1-oxo-1,2,15a,16,17,18-hexahydro-15H-4,8-(azeno)-14,10-(metheno)pyrrolo[1,2-d][1,12,4]dioxazacyclohepta-decin-16-yl]ethanesulfonamide (optical isomer)], the “OX2R agonist activity (3 μM, %)” value stood at 106%.
